In patent US20240417405A1, “Substituted Spiro Derivatives” (Janssen Pharmaceutica NV, priority 2021, published 2024):

What was measured:
[1] = biological target: T1, menin/MLL (terbium chelate-labeled menin, FITC-MBM1 peptide) (Homo sapiens, UniProt O00255, T541A); experiment: Menin/MLL homogenous time-resolved fluorescence (HTRF) assay; assay type: binding; settings: 30 min incubation
T1 construct: Menin (a.a 1-610-6xhis tag)
T1 sequence (O00255 with tags, fused parts or gaps T541A): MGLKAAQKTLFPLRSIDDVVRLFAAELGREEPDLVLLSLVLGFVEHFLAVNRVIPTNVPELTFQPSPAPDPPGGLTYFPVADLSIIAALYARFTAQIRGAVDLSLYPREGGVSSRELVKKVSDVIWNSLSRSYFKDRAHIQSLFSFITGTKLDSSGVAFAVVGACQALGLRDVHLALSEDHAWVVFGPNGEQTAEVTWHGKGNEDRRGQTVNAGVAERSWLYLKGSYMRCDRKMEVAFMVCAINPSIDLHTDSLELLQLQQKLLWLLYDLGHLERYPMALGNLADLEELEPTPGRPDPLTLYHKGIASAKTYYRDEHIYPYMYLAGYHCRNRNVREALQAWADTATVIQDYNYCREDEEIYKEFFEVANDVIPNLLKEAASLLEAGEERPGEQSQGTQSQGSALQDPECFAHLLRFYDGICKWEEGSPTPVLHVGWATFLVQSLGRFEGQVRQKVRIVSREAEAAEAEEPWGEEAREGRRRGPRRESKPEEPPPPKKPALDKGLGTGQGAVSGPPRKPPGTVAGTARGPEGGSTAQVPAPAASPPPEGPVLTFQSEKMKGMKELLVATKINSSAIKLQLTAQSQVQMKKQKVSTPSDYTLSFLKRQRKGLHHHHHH
Outline: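 Read-out: TR-FRET ratio (FITC 520 nm / terbium 490 nm, ex. 337 nm) after 15 min with 75 nM FITC-MBM1 peptide. Test compound first sat 30 min with 200 pM Tb-menin 1-610-His, 0.5% DMSO, pH 7.5 Tris buffer. IC50 by Hill fit; values under 0.1 nM reported as 0.1 nM.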

[2] = system: KO-52 cells; experiment: Proliferation assay, spheroid-like growth, KO-52 (MLL wildtype control cell line); assay type: cell-based, human; settings: Homo sapiens, 192 h, KO-52 control cells, 8 days, confluence as measure of spheroid size; read-out: spheroid assay_OneTime KO-52 IC50
Outline: (§1)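 MOLM14 (MLL-AF9) or KO-52 (MLL wildtype) cells were grown in ultra-low attachment round-bottom wells with compound (0.3% DMSO) for 8 days at 37 °C. Spheroid confluence was imaged live on day 8, normalized to DMSO and a high-dose reference/staurosporin control, and absolute IC50 fitted with variable slope.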

[3] = system: MOLM14 cells; experiment: Proliferation assay, spheroid-like growth, MOLM14 (MLL-AF9 rearranged); assay type: cell-based, human; settings: Homo sapiens, MOLM-14, 192 h, 8 days, confluence as measure of spheroid size, read-out: spheroid assay_OneTime MOLM14 IC50
Outline: as §1

Row | SMILES | IC50 [1] [nM] | IC50 [2] [nM] | IC50 [3] [nM]
1 | CC(C)[C@H]([C@H]1C[C@@H](N(C)C2CCOCC2)C1)N1CC2(CCN(c3ncnnc3Oc3ccc(F)cc3-c3cncnc3C3CC3)C2)C1 (single isomer, unassigned) [Compound 164] | 0.1 | 1410 | 10
2 | CC(C)[C@@H]([C@H]1CC[C@@H](NC(=O)C2CC2)C1)N1CC2(CCN(c3ncnnc3Oc3ccc(F)cc3-c3cncnc3C3CC3)C2)C1 (single isomer, unassigned) [Compound 344] | 0.1 | 1590 | 54
3 | CC(=O)N1CC2CN([C@H]3C[C@H]([C@@H](C(C)C)N4CC5(CCN(c6ncnnc6Oc6ccc(F)cc6-c6cncnc6C6CC6)C5)C4)C3)CC2C1 (single isomer, unassigned) [Compound 65] | 0.2 | 11800 | 130
4 | CC(=O)N[C@H]1C[C@@H]([C@@H](C(C)C)N2CC3(CCN(c4ncnnc4Oc4ccc(F)cc4-c4ncncc4C4CC4)C3)C2)C1 (single isomer, unassigned) [Compound 180] | 0.3 | 10100 | 62
5 | CO[C@H]1[C@@H]2CN([C@H]3C[C@@H]([C@@H](C(C)C)N4CC5(CCN(c6ncnnc6Oc6ccc(F)cc6-c6cncnc6C6CC6)C5)C4)C3)C[C@@H]21 (single isomer, unassigned) [Compound 233] | 0.1 | 840 | 2
6 | CC(=O)N1CC2(CCN([C@H]3C[C@@H]([C@@H](C(C)C)N4CC5(CCN(c6ncnnc6Oc6ccc(F)cc6-c6cncnc6C6CC6)C5)C4)C3)C2)C1 (single isomer, unassigned) [Compound 53] | 0.2 | 9280 | 5
7 | CC(C)[C@@H]([C@H]1C[C@H](N2CC3(COC3)C2)C1)N1CC2(CCN(c3ncnnc3Oc3ccc(F)cc3-c3cnncc3C3CC3)C2)C1 (single isomer, unassigned) [Compound 107] | 0.1 | > 15000 | 76
8 | CC(C)[C@H]([C@H]1C[C@@H](N2C[C@H](O)C3(CCC3)C2)C1)N1CC2(CCN(c3ncnnc3Oc3ccc(F)cc3-c3cncnc3C3CC3)C2)C1 (single isomer, unassigned) [Compound 214] | 0.1 | 3630 | < 2
9 | COC1CCN([C@H]2C[C@@H](C(C(C)C)N3CC4(CCN(c5ncnnc5Oc5ccc(F)cc5-c5cncnc5C5CC5)C4)C3)C2)CC1 (stereo partly drawn) [Compound 124] | 0.2 | 2520 | 12
10 | CC(C)[C@@H]([C@H]1C[C@H](N2CCC(O)C(F)C2)C1)N1CC2(CCN(c3ncnnc3Oc3ccc(F)cc3-c3cncnc3C3CC3)C2)C1 (single isomer, unassigned) [Compound 86] | 17.2 | > 15000 | 650
11 | CC(C)[C@@H]([C@H]1C[C@H](N2CC[C@@H](C(=O)N(C)C)C2)C1)N1CC2(CCN(c3ncnnc3Oc3ccc(F)cc3-c3cnncc3C3CC3)C2)C1 (single isomer, unassigned) [Compound 111] | 0.2 | > 15000 | 120
12 | CC(=O)N[C@H]1C[C@@H]([C@@H](C(C)C)N2CC3(CCN(c4ncnnc4Oc4ccc(F)cc4-c4cnc(C#N)nc4C4CC4)C3)C2)C1 (single isomer, unassigned) [Compound 343] | 0.2 | 1140 | 15
13 | CO[C@H]1[C@@H]2CN([C@H]3C[C@H]([C@H](C(C)C)N4CC5(CCN(c6ncnnc6Oc6ccc(F)cc6-c6cnncc6C6CC6)C5)C4)C3)C[C@@H]21 (single isomer, unassigned) [Compound 282b] | 0.5 | 11500 | 380
14 | CC(C)C([C@H]1C[C@H](N2CC(O)C2)C1)N1CC2(CCN(c3ncnnc3Oc3ccc(F)cc3-c3cncnc3C3CC3)C2)C1 (stereo partly drawn) [Compound 126] | 0.4 | 14900 | 150
15 | CC(C)[C@H]([C@H]1C[C@@H](N2CC3(COC(=O)N3)C2)C1)N1CC2(CCN(c3ncnnc3Oc3ccc(F)cc3-c3cncnc3C3CC3)C2)C1 (single isomer, unassigned) [Compound 318] | 0.1 | 6900 | 26
